Source: ChEMBL document CHEMBL4507258 (2021)

Experiments:
[1] = target: Rho-associated protein kinase 1 (Homo sapiens) (UniProt Q13464); conditions: Compound concentration 1000.0 nM
[2] = target: TGF-beta receptor type-1 (Homo sapiens) (UniProt P36897); conditions: Compound concentration 1000.0 nM
[3] = target: 5'-AMP-activated protein kinase catalytic subunit alpha-2 (Homo sapiens) (UniProt P54646); conditions: Compound concentration 1000.0 nM
[4] = target: 5'-AMP-activated protein kinase catalytic subunit alpha-1 (Homo sapiens) (UniProt Q13131); conditions: Compound concentration 1000.0 nM
[5] = target: Serine/threonine-protein kinase MARK2 (Homo sapiens) (UniProt Q7KZI7); conditions: Compound concentration 1000.0 nM
[6] = system: Serine/threonine-protein kinase B-raf (Homo sapiens), P15056 [V600E]; conditions: Compound concentration 1000.0 nM
[7] = target: Serine/threonine-protein kinase NLK (Homo sapiens) (UniProt Q9UBE8); conditions: Compound concentration 1000.0 nM
[8] = target: Tyrosine-protein kinase Yes (Homo sapiens) (UniProt P07947); conditions: Compound concentration 1000.0 nM
[9] = system: Tyrosine-protein kinase ABL1 (Homo sapiens), P00519 [T315I]; conditions: Compound concentration 1000.0 nM
[10] = target: Receptor-type tyrosine-protein kinase FLT3 (Homo sapiens) (UniProt P36888); conditions: Compound concentration 1000.0 nM
[11] = target: Serine/threonine-protein kinase 17A (Homo sapiens) (UniProt Q9UEE5); conditions: Compound concentration 1000.0 nM
[12] = target: Serine/threonine-protein kinase STK11 (Homo sapiens) (UniProt Q15831); conditions: Compound concentration 1000.0 nM
[13] = target: Mitogen-activated protein kinase 3 (Homo sapiens) (UniProt P27361); conditions: Compound concentration 1000.0 nM
[14] = target: Serine/threonine-protein kinase Nek9 (Homo sapiens) (UniProt Q8TD19); conditions: Compound concentration 1000.0 nM
[15] = system: ALK tyrosine kinase receptor (Homo sapiens), Q9UM73 [C1156Y]; conditions: Compound concentration 1000.0 nM
[16] = target: Dual specificity tyrosine-phosphorylation-regulated kinase 1B (Homo sapiens) (UniProt Q9Y463); conditions: Compound concentration 1000.0 nM
[17] = target: Serine/threonine-protein kinase WNK3 (Homo sapiens) (UniProt Q9BYP7); conditions: Compound concentration 1000.0 nM
[18] = target: Mast/stem cell growth factor receptor Kit (Homo sapiens) (UniProt P10721); conditions: Compound concentration 1000.0 nM
[19] = target: Ribosomal protein S6 kinase alpha-5 (Homo sapiens) (UniProt O75582); conditions: Compound concentration 1000.0 nM
[20] = target: Cyclin-dependent kinase 17 (Homo sapiens) (UniProt Q00537); conditions: Compound concentration 1000.0 nM
[21] = target: Serine/threonine-protein kinase MAK (Homo sapiens) (UniProt P20794); conditions: Compound concentration 1000.0 nM
[22] = target: BDNF/NT-3 growth factors receptor (Homo sapiens) (UniProt Q16620); conditions: Compound concentration 1000.0 nM
[23] = target: Homeodomain-interacting protein kinase 1 (Homo sapiens) (UniProt Q86Z02); conditions: Compound concentration 1000.0 nM
[24] = target: SRSF protein kinase 1 (Homo sapiens) (UniProt Q96SB4); conditions: Compound concentration 1000.0 nM
[25] = target: Hormonally up-regulated neu tumor-associated kinase (Homo sapiens) (UniProt P57058); conditions: Compound concentration 1000.0 nM
[26] = target: Tyrosine-protein kinase JAK2 (Homo sapiens) (UniProt O60674); conditions: Compound concentration 1000.0 nM
[27] = target: Ribosomal protein S6 kinase alpha-4 (Homo sapiens) (UniProt O75676); conditions: Compound concentration 1000.0 nM
[28] = target: cGMP-dependent protein kinase 2 (Homo sapiens) (UniProt Q13237); conditions: Compound concentration 1000.0 nM
[29] = target: Serine/threonine-protein kinase PAK 6 (Homo sapiens) (UniProt Q9NQU5); conditions: Compound concentration 1000.0 nM
[30] = target: Delta-type opioid receptor (Homo sapiens) (UniProt P41143); conditions: Compound concentration 10.0 uM
[31] = system: eIF-2-alpha kinase GCN2 (Homo sapiens), Q9P2K8 [S808G]; conditions: Compound concentration 1000.0 nM
[32] = target: Serine/threonine-protein kinase OSR1 (Homo sapiens) (UniProt O95747); conditions: Compound concentration 1000.0 nM
[33] = target: Phosphorylase b kinase regulatory subunit alpha, liver isoform (Homo sapiens) (UniProt P46019); conditions: Compound concentration 1000.0 nM
[34] = target: Ephrin type-A receptor 7 (Homo sapiens) (UniProt Q15375); conditions: Compound concentration 1000.0 nM
[35] = system: Phosphatidylinositol 4,5-bisphosphate 3-kinase catalytic subunit alpha isoform (Homo sapiens), P42336 [H1047Y]; conditions: Compound concentration 1000.0 nM
[36] = system: Epidermal growth factor receptor (Homo sapiens), P00533 [L861Q]; conditions: Compound concentration 1000.0 nM
[37] = target: Proto-oncogene tyrosine-protein kinase ROS (Homo sapiens) (UniProt P08922); conditions: Compound concentration 1000.0 nM
[38] = system: Phosphatidylinositol 4,5-bisphosphate 3-kinase catalytic subunit alpha isoform (Homo sapiens), P42336 [E542K]; conditions: Compound concentration 1000.0 nM
[39] = target: Transient receptor potential cation channel subfamily M member 6 (Homo sapiens) (UniProt Q9BX84); conditions: Compound concentration 1000.0 nM
[40] = system: Phosphatidylinositol 4,5-bisphosphate 3-kinase catalytic subunit alpha isoform (Homo sapiens), P42336 [E545K]; conditions: Compound concentration 1000.0 nM
[41] = target: Serine/threonine-protein kinase PknB (Mycobacterium tuberculosis) (UniProt P9WI81); conditions: Compound concentration 1000.0 nM
[42] = target: cAMP-dependent protein kinase catalytic subunit beta (Homo sapiens) (UniProt P22694); conditions: Compound concentration 1000.0 nM
[43] = target: Mitogen-activated protein kinase kinase kinase 4 (Homo sapiens) (UniProt Q9Y6R4); conditions: Compound concentration 1000.0 nM
[44] = target: Serine/threonine-protein kinase 26 (Homo sapiens) (UniProt Q9P289); conditions: Compound concentration 1000.0 nM

Cyclin-dependent kinase 17 (Homo sapiens), sequence (Q00537 whole entry, looked up): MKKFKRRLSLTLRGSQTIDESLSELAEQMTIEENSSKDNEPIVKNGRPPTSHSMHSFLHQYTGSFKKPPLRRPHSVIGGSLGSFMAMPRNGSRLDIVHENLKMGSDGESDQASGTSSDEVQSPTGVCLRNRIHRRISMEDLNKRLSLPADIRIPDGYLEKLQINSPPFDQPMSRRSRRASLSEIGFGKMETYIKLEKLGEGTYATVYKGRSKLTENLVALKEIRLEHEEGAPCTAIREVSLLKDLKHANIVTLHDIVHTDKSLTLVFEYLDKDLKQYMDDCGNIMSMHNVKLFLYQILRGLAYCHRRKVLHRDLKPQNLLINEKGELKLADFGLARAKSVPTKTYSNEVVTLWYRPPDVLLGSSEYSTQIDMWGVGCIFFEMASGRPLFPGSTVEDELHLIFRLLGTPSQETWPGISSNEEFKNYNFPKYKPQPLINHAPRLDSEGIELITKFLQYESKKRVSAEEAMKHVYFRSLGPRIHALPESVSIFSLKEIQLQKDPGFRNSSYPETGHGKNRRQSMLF
Phosphatidylinositol 4,5-bisphosphate 3-kinase catalytic subunit alpha isoform (Homo sapiens), P42336 [H1047Y], sequence (P42336 whole entry H1047Y, canonical isoform): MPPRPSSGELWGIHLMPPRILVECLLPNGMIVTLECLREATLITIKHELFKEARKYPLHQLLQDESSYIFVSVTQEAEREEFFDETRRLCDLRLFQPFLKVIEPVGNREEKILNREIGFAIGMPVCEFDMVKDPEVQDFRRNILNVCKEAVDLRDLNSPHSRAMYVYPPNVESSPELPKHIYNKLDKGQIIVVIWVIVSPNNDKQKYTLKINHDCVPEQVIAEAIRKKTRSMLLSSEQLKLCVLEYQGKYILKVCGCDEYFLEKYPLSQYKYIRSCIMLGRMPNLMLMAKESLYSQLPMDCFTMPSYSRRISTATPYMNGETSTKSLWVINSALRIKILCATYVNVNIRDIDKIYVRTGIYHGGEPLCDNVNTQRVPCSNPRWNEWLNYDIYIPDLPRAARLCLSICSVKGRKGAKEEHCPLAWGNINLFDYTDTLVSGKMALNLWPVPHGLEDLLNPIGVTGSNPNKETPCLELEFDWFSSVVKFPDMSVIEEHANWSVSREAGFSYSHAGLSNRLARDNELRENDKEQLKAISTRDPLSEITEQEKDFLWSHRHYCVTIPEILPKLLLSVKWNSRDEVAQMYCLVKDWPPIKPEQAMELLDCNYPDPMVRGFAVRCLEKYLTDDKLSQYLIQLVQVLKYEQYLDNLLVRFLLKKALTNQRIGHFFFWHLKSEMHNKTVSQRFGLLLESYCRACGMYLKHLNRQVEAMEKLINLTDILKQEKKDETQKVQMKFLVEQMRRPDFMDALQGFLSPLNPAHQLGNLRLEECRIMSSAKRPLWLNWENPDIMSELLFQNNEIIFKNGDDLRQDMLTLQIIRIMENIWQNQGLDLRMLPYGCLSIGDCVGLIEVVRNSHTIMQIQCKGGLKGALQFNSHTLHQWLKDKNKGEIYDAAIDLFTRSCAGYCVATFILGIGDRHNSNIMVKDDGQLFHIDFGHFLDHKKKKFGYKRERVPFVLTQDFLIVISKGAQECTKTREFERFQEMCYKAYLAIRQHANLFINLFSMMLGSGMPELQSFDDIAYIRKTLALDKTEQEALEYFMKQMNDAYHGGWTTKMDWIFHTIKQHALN
5'-AMP-activated protein kinase catalytic subunit alpha-1 (Homo sapiens), sequence (Q13131 whole entry, looked up): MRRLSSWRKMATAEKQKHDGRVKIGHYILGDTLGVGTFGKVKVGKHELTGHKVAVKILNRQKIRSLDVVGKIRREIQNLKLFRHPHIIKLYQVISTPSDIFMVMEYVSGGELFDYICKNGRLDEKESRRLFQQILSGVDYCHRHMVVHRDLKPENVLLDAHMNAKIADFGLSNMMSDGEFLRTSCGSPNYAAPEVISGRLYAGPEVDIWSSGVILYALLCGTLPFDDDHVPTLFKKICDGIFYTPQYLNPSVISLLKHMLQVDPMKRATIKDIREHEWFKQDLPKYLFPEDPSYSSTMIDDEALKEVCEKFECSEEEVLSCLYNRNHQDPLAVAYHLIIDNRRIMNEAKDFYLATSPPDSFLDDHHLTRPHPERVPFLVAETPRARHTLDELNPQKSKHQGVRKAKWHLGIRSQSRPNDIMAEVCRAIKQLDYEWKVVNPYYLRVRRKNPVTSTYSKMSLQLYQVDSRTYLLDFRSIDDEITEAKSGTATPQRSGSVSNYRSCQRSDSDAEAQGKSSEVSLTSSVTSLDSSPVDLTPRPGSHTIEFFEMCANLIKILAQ
eIF-2-alpha kinase GCN2 (Homo sapiens), Q9P2K8 [S808G], sequence (Q9P2K8 whole entry S808G): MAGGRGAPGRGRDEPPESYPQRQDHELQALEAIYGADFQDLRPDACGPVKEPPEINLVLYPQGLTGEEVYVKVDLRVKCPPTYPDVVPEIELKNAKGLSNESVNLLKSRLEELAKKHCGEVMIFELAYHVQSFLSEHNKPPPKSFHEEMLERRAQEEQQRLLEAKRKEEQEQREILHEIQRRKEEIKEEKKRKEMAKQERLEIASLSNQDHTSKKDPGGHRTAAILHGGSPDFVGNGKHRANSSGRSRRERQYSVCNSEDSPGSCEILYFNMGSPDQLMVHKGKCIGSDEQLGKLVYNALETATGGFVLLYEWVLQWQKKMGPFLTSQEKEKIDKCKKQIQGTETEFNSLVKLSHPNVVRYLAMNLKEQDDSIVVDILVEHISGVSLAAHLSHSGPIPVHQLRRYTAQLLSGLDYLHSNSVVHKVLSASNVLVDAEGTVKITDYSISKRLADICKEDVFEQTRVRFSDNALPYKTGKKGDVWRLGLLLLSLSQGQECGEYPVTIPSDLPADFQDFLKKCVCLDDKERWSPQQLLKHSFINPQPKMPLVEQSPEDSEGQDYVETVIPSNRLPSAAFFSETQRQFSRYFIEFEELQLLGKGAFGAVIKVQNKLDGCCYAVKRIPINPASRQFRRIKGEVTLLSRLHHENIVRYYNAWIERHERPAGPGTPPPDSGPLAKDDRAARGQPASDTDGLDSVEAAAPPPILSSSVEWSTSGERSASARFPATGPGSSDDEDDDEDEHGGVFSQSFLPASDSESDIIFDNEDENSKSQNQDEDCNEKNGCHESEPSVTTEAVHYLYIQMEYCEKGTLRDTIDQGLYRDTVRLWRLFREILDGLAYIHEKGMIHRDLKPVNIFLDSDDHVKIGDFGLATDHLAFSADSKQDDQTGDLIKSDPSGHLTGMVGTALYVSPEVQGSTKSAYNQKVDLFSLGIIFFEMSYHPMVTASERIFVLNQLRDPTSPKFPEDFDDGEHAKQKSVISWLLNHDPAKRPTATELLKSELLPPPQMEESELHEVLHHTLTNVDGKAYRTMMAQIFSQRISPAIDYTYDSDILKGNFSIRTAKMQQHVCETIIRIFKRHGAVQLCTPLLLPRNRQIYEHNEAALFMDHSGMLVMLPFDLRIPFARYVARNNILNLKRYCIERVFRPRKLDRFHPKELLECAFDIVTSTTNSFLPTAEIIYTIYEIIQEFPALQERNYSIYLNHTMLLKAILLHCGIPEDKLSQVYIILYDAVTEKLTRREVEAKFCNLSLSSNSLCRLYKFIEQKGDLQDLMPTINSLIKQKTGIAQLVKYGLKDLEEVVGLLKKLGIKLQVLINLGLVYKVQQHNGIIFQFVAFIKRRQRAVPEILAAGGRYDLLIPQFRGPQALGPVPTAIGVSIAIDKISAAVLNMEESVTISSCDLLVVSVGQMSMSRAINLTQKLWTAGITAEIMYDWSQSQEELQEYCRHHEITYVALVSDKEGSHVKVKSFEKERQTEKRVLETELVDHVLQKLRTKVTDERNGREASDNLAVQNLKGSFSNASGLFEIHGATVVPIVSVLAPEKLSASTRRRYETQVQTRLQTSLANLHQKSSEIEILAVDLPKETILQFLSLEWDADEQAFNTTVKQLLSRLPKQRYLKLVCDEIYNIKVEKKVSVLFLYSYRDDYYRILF
Delta-type opioid receptor (Homo sapiens), sequence (P41143 whole entry): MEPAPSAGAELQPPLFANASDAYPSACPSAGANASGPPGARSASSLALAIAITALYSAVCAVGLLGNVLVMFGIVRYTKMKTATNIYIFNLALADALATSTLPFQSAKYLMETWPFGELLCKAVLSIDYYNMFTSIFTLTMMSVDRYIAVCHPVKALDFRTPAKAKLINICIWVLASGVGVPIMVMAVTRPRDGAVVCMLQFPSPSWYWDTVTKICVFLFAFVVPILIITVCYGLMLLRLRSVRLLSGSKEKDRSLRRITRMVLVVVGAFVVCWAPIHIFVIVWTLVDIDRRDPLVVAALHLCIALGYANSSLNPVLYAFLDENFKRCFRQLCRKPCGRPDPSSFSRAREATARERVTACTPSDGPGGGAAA
Serine/threonine-protein kinase PAK 6 (Homo sapiens), sequence (Q9NQU5 whole entry, looked up): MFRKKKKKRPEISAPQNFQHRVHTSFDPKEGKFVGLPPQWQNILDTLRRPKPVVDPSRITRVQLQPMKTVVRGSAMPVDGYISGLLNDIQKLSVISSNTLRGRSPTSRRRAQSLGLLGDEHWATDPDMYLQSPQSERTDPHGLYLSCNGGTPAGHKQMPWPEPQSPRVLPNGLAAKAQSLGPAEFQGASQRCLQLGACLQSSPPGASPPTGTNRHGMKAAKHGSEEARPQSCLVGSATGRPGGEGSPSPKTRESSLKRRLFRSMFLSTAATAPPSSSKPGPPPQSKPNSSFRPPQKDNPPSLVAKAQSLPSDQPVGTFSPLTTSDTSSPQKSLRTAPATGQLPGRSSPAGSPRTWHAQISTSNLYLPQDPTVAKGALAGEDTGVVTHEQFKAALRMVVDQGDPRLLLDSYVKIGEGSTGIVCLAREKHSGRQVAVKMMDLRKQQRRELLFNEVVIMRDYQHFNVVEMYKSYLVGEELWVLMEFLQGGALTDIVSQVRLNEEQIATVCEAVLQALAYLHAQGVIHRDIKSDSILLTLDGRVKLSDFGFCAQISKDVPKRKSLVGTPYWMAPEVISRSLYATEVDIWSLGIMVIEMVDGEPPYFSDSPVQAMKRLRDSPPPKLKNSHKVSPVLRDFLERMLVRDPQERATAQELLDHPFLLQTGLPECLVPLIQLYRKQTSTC

CCCCN(CCCC)C(=O)CN1C[C@@H](c2cc(OC)c3c(c2)OCO3)[C@H](C(=O)O)[C@H]1CC(C)(C)CCC [A-545]
inactive: residual activity [1] 100% | residual activity [2] 100% | residual activity [3] 92.6% | residual activity [4] 96.7% | residual activity [5] 100% | residual activity [6] 100% | residual activity [7] 100% | residual activity [8] 95.3% | residual activity [9] 100% | residual activity [10] 97.4% | residual activity [11] 100% | residual activity [12] 82.2% | residual activity [13] 100% | residual activity [14] 84.2% | residual activity [15] 95.4% | residual activity [16] 95% | residual activity [17] 65.5% | residual activity [18] 100% | residual activity [19] 98.5% | residual activity [20] 93.3% | residual activity [21] 100% | residual activity [22] 98.3% | residual activity [23] 77.3% | residual activity [24] 62.5% | residual activity [25] 96.8% | residual activity [26] 91% | residual activity [27] 100% | residual activity [28] 100% | residual activity [29] 100% | inhibition [30] 41.1% | residual activity [31] 100% | residual activity [32] 94% | residual activity [33] 100% | residual activity [34] 100% | residual activity [35] 92.6% | residual activity [36] 100% | residual activity [37] 100% | residual activity [38] 100% | residual activity [39] 90.4% | residual activity [40] 91% | residual activity [41] 92.8% | residual activity [42] 100% | residual activity [43] 85.5% | residual activity [44] 100%

CCCCN(CCCC)C(=O)CN1C[C@H](c2cc(OC)c3c(c2)OCO3)[C@@H](C(=O)O)[C@@H]1CC(C)(C)CCC [ABT-546]
inactive: residual activity [1] 90.4% | residual activity [2] 98.6% | residual activity [3] 100% | residual activity [4] 100% | residual activity [5] 100% | residual activity [6] 89.1% | residual activity [7] 100% | residual activity [8] 100% | residual activity [9] 100% | residual activity [10] 76% | residual activity [11] 100% | residual activity [12] 100% | residual activity [13] 100% | residual activity [14] 100% | residual activity [15] 100% | residual activity [16] 100% | residual activity [17] 100% | residual activity [18] 100% | residual activity [19] 100% | residual activity [20] 99.3% | residual activity [21] 100% | residual activity [22] 62% | residual activity [23] 100% | residual activity [24] 100% | residual activity [25] 100% | residual activity [26] 100% | residual activity [27] 100% | residual activity [28] 100% | residual activity [29] 100% | inhibition [30] 25.6% | residual activity [31] 100% | residual activity [32] 89.5% | residual activity [33] 100% | residual activity [34] 100% | residual activity [35] 100% | residual activity [36] 76.4% | residual activity [37] 100% | residual activity [38] 57.4% | residual activity [39] 91.6% | residual activity [40] 70% | residual activity [41] 85% | residual activity [42] 100% | residual activity [43] 88.7% | residual activity [44] 72.9%
